# How the values were obtained:
# Assay in all cases: drug sensitivity score (DSS2, normalised partial AUC of dose-response, 72 h CellTiter-Glo viability) (DSS (dimensionless)); higher = more sensitive (stronger growth inhibition / cytotoxicity); extreme values may be limits of the assay
# [1] = system: LNCAP
# In short: (§1)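 The drug sensitivity score reported here is a partial area under the fitted logistic dose–response curve, divided by the log of the curve's upper asymptote and computed in BREEZE; higher values denote greater sensitivity. Low-passage primary prostate cancer-associated fibroblasts, PF179T, WPMY-1, LNCaP and 22Rv1 cells were seeded into 384-well plates preloaded with compounds at five doses across a 10,000-fold range. CellTiter-Glo 2.0 luminescence gave viability at 72 h, scaled to vehicle and positive-control wells.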
# [2] = system: PF179T
# In short: as §1
# [3] = system: CAF#6 (primary prostate cancer-associated fibroblasts of iCAF-like type)
# In short: as §1
# [4] = system: CAF#4 (primary prostate cancer-associated fibroblasts of iCAF-like type)
# In short: as §1
# [5] = system: 22Rv1
# In short: as §1
# [6] = system: WPMY-1
# In short: as §1
# [7] = system: CAF#1 (primary prostate cancer-associated fibroblasts of myCAF-like type)
# In short: as §1
# [8] = system: CAF#3 (primary prostate cancer-associated fibroblasts of myCAF-like type)
# In short: as §1
# [9] = system: CAF#2 (primary prostate cancer-associated fibroblasts of iCAF-like type)
# In short: as §1
# [10] = system: CAF#7 (primary prostate cancer-associated fibroblasts of myCAF-like type)
# In short: as §1
# [11] = system: CAF#5 (primary prostate cancer-associated fibroblasts of myCAF-like type)
# In short: as §1
Compound,drug sensitivity score [1],drug sensitivity score [2],drug sensitivity score [3],drug sensitivity score [4],drug sensitivity score [5],drug sensitivity score [6],drug sensitivity score [7],drug sensitivity score [8],drug sensitivity score [9],drug sensitivity score [10],drug sensitivity score [11]
COc1cc2c(NC3CCN(C(C)C)CC3)nc(N3CCC(F)(F)CC3)nc2cc1OCCCN1CCCC1 [UNC0642] (tested concentration range 1-10000 nM),4.5,0,0.7,0,5.8,4.8,0,0,0,1.9,0
CN1CC[C@H](c2c(O)cc(O)c3c(=O)cc(-c4ccccc4Cl)oc23)[C@H](O)C1 [Alvocidib] (tested concentration range 1-10000 nM),18.2,10,13.9,12.7,17.4,16.5,15.9,16.5,16.8,15.4,15.4
CC(=O)O[C@H]1C(=O)[C@@]2(C)[C@H]([C@H](OC(=O)c3ccccc3)[C@]3(O)C[C@H](OC(=O)[C@H](O)[C@@H](NC(=O)c4ccccc4)c4ccccc4)C(C)=C1C3(C)C)[C@]1(OC(C)=O)CO[C@@H]1C[C@@H]2O [Paclitaxel] (tested concentration range 0.1-1000 nM),31.3,18.2,15.3,8.8,22.4,26.4,14.8,10.8,16.8,24.2,15.4
CC(=O)N(O)CCCCCNC(=O)CCC(=O)N(O)CCCCCNC(=O)CCC(=O)N(O)CCCCCN [Deferoxamine] (tested concentration range 1-10000 nM),3.2,5.7,1.4,3.2,4.9,5.3,0.9,0.2,4.8,1.6,2.4
N#Cc1ccc(COC[C@H]2O[C@@H](n3c(NCc4ccc(Cl)c(Cl)c4)nc4c(N)ncnc43)[C@H](O)[C@@H]2O)cc1 (tested concentration range 1-10000 nM),5,4.4,1.8,5.7,6.9,1.9,3.7,0.6,5.7,4.5,4.7
Cc1sc2c(c1C)C(c1ccc(Cl)cc1)=N[C@@H](CC(=O)Nc1ccc(O)cc1)c1nnc(C)n1-2 [Birabresib] (tested concentration range 1-10000 nM),19.8,2.8,5.1,3.4,13.4,11.9,9.4,11.8,9.9,3,3.1
C[C@]1(O)C[C@@H](c2nc(-c3ccc4ccc(-c5ccccc5)nc4c3)c3c(N)nccn32)C1 [Linsitinib] (tested concentration range 1-10000 nM),0.6,0,0.2,0,1.3,0.5,1.5,0,2.6,0.7,3.2
CC1(C)NC(=O)N(c2ccc([N+](=O)[O-])c(C(F)(F)F)c2)C1=O [Nilutamide] (tested concentration range 1-10000 nM),2.9,0,0,2.7,0,0,0.1,0,0.1,0,0
CCCS(=O)(=O)Nc1ccc(F)c(C(=O)c2c[nH]c3ncc(-c4ccc(Cl)cc4)cc23)c1F [Vemurafenib] (tested concentration range 1-10000 nM),3,2.8,0.8,3,3.4,1.9,4.3,4.4,5.3,1.6,4.7
CC(C)(C)NC(=O)[C@H]1CC[C@H]2[C@@H]3CC[C@H]4NC(=O)C=C[C@]4(C)[C@H]3CC[C@]12C [Finasteride] (tested concentration range 1-10000 nM),2.8,0,0,0,0,0,0,0.5,0,0,0
CO[C@H]1C[C@@H]2CC[C@@H](C)[C@@](O)(O2)C(=O)C(=O)N2CCCC[C@H]2C(=O)O[C@H]([C@H](C)C[C@@H]2CC[C@@H](OC(=O)C(C)(CO)CO)[C@H](OC)C2)CC(=O)[C@H](C)/C=C(\C)[C@@H](O)[C@@H](OC)C(=O)[C@H](C)C[C@H](C)/C=C/C=C/C=C/1C [Temsirolimus] (tested concentration range 0-100 nM),11,9.8,5.5,9.9,16.7,6.6,10.6,4,10.1,6,11.8
C[C@]12C=CC(=O)C=C1CC[C@@H]1[C@@H]2[C@@H](O)C[C@@]2(C)[C@H]1CC[C@]2(O)C(=O)CO [Prednisolone] (tested concentration range 1-10000 nM),0,0,0,0,0,0,0,0,0,0,0
CCN(c1cc(-c2ccc(CN3CCOCC3)cc2)cc(C(=O)NCc2c(C)cc(C)[nH]c2=O)c1C)C1CCOCC1 [Tazemetostat] (tested concentration range 1-10000 nM),1.9,0,0.7,0.4,0,0,1,1.2,1.8,0,0.9
Nc1nc2[nH]cc(CCc3ccc(C(=O)N[C@@H](CCC(=O)O)C(=O)O)cc3)c2c(=O)[nH]1 [Pemetrexed] (tested concentration range 1-10000 nM),9.4,0.1,0,0,0,13.5,1.2,0.5,0,0,0
CCc1c2c(nc3ccc(O)cc13)-c1cc3c(c(=O)n1C2)COC(=O)[C@]3(O)CC [SN-38] (tested concentration range 1-10000 nM),34.8,19.7,8.7,20.3,39.3,35,20.3,7.1,25.5,11.8,14.3
COc1cc(C(=O)O)ccc1NC(=O)[C@@H]1N[C@@H](CC(C)(C)C)[C@](C#N)(c2ccc(Cl)cc2F)[C@H]1c1cccc(Cl)c1F [Idasanutlin] (tested concentration range 1-10000 nM),0,16.7,10.6,11.5,12.7,1.9,12.5,5.1,13.5,10.2,12.5
Nc1cccc2c1CN(C1CCC(=O)NC1=O)C2=O (centres undefined) [Lenalidomide] (tested concentration range 10-100000 nM),0,0,0,3,0,0,1.4,0,2.2,0,1.1
CC(C)(C)Cn1c(N)nc2ccc(-c3[nH]c(C(C)(C)C)nc3-c3ccc(F)cc3)nc21 [Ralimetinib] (tested concentration range 1-10000 nM),11.2,0,0.1,0.1,3.8,2.8,0.8,2.1,1.9,0,0
CC1(C)CCC(c2ccc(Cl)cc2)=C(CN2CCN(c3ccc(C(=O)NS(=O)(=O)c4ccc(N[C@H](CCN5CCOCC5)CSc5ccccc5)c(S(=O)(=O)C(F)(F)F)c4)cc3)CC2)C1 [Navitoclax] (tested concentration range 1-10000 nM),7.5,0,3.1,7.5,0,0.6,3,0,0,0.7,2.3
C[C@]12CC[C@@H]3c4ccc(O)cc4C[C@@H](CCCCCCCCC[S+]([O-])CCCC(F)(F)C(F)(F)F)[C@H]3[C@@H]1CC[C@@H]2O (some centres undefined) [Fulvestrant] (tested concentration range 0.1-1000 nM),0.3,0,0.1,0,0,0,0,0.2,0,0,0
CC(=O)OC[C@H]1O[C@@H]([S-])[C@H](OC(C)=O)[C@@H](OC(C)=O)[C@@H]1OC(C)=O.CCP(CC)CC.[Au+] [Auranofin] (tested concentration range 0.2-2500 nM),13.1,0,5.4,3.3,5.7,5.2,3.7,5.1,5,7.2,3.5
N.N.[Cl][Pt][Cl] [Cisplatin] (tested concentration range 10-100000 nM),5.6,11.4,4.3,5,15,16,11.8,5.7,18.1,4.8,14.6
CC[C@H](Nc1ncnc2[nH]cnc12)c1nc2cccc(F)c2c(=O)n1-c1ccccc1 [Idelalisib] (tested concentration range 1-10000 nM),10.2,5.4,3.2,5.6,2,1.3,3.4,4.6,4.5,3.9,3.6
COc1ccccc1S(=O)(=O)Nc1ccc2c(c1)CN(C)C(=O)N2 [PFI-1] (tested concentration range 3-30000 nM),6.4,2.6,1.8,1.3,6.6,4.2,3.1,4.3,2.1,3.4,1
